{"source": "paper PMC11864979", "about": "“First-in-class ultralong-target-residence-time p38α inhibitors as a mitosis-targeted therapy for colorectal cancer” (Nature Cancer, 2025)", "experiment_in_all_cases": "selectivity profiling in a panel of 340 wild-type kinases (Reaction Biology Europe)", "type_in_all_cases": "binding", "key": {"340 wild-type kinases [1]": {"biological_target": "T1, 340 wild-type kinases (Homo sapiens, UniProt Q9BZL6)", "T1 construct": "purchased Reaction Biology Europe", "T1 sequence (Q9BZL6 1-878)": "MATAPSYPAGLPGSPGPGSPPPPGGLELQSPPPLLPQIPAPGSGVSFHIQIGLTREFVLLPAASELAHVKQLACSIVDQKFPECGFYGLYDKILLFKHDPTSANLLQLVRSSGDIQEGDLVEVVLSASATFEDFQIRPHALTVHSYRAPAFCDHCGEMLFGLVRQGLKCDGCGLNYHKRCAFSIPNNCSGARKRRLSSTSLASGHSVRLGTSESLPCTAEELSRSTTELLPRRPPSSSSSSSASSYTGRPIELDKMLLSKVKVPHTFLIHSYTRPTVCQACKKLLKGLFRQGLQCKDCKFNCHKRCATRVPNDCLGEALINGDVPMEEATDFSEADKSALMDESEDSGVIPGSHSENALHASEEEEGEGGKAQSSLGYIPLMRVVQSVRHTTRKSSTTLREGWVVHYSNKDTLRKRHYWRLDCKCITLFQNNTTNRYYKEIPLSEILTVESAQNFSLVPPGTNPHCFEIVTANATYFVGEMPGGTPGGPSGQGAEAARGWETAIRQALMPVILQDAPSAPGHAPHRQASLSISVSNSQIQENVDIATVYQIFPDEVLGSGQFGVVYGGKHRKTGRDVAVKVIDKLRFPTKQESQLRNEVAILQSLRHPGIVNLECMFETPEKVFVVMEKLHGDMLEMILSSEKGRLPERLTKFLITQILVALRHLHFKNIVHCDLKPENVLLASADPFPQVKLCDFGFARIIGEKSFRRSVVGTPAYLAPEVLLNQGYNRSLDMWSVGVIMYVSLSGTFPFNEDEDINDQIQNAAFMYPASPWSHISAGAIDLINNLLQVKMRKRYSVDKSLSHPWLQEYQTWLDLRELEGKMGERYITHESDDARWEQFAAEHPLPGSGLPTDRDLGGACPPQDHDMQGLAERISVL"}, "340 wild-type kinases [2]": {"biological_target": "T2, 340 wild-type kinases (Homo sapiens, UniProt O00311)", "T2 construct": "purchased Reaction Biology Europe", "T2 sequence (O00311 whole entry)": "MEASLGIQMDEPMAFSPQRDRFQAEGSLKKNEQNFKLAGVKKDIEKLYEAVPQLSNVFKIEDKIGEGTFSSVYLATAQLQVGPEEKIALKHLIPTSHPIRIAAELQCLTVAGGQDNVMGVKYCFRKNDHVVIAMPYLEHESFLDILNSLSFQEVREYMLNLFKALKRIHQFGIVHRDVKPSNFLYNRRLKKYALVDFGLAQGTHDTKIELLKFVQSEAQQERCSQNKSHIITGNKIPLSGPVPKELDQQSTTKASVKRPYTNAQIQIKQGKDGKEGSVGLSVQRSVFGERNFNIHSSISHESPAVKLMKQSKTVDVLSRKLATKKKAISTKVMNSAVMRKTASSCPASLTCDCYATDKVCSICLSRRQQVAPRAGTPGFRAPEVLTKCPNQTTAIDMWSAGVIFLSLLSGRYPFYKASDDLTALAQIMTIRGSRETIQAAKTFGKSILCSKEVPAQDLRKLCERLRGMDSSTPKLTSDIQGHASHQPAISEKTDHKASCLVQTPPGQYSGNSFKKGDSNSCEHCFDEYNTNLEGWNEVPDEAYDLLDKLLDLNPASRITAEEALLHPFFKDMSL"}, "340 wild-type kinases [3]": {"biological_target": "T3, 340 wild-type kinases (Homo sapiens, UniProt Q9H2K8)", "T3 construct": "purchased Reaction Biology Europe", "T3 sequence (Q9H2K8 1-898)": "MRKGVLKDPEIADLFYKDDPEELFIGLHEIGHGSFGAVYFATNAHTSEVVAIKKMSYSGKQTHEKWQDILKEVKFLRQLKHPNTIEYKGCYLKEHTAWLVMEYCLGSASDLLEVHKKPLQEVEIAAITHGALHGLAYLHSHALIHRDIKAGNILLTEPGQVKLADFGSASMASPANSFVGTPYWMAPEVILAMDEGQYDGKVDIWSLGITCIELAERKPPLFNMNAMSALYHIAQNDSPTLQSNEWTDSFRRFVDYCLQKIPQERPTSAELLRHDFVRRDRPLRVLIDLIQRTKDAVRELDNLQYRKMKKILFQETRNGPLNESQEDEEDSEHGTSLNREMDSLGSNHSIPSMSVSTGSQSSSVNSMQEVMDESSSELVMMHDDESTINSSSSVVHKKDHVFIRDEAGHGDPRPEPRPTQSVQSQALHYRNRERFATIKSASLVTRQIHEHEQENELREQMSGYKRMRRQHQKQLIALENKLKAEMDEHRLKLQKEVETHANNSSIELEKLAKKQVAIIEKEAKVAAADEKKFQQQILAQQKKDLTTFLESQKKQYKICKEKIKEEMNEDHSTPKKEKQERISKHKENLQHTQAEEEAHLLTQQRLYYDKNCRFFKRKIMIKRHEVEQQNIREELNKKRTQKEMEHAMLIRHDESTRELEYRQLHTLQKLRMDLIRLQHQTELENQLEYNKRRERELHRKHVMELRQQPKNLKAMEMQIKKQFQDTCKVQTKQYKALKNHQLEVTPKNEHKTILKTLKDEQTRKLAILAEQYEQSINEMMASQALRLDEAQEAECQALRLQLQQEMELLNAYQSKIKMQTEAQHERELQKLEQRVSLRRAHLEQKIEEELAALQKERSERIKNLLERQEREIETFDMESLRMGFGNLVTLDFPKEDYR"}, "340 wild-type kinases [4]": {"biological_target": "T4, 340 wild-type kinases (Homo sapiens, UniProt P11802)", "T4 construct": "purchased Reaction Biology Europe", "T4 sequence (P11802 whole entry)": "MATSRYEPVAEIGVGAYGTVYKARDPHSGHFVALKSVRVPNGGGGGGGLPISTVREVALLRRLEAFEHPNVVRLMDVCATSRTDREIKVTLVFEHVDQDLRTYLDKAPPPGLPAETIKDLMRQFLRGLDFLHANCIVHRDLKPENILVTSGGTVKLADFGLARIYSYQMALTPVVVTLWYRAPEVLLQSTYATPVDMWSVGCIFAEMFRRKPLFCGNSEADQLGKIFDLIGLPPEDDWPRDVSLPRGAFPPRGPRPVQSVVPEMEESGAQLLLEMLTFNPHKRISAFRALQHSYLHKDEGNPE"}, "340 wild-type kinases [5]": {"biological_target": "T5, 340 wild-type kinases (Homo sapiens, UniProt P42681)", "T5 construct": "purchased Reaction Biology Europe", "T5 sequence (P42681 1-527)": "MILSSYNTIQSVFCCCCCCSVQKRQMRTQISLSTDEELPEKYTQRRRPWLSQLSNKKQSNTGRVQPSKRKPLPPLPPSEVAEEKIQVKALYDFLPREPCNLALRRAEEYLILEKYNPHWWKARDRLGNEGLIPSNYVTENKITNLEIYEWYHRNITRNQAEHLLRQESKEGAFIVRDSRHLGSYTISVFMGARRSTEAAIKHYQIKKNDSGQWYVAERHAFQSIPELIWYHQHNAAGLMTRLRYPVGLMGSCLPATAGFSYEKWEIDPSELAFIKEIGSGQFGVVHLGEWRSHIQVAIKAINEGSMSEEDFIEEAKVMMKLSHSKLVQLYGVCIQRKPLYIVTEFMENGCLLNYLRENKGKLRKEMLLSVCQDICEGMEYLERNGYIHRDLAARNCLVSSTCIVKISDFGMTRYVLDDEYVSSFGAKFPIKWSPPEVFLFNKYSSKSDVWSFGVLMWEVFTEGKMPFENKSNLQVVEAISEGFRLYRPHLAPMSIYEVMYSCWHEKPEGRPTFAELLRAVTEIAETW"}}, "note": "Like-named read-outs stand apart in the source and are kept apart here."}
{"compound": "CNC(=O)c1ccc2c(c1)C(=O)c1ccc(Nc3ccc(F)c(NC(=O)C4CC4)c3)cc1CC2", "note": "[Compound 2015]", "values": [{"measurement": "remaining activity at 0.2 µM", "setting": "340 wild-type kinases [1]; 0.2 µM 2015, read-out: PRKD2 residual activity", "result": 66.4, "unit": "%"}, {"measurement": "remaining activity at 1 µM", "setting": "340 wild-type kinases [1]; 1 µM 2015, read-out: PRKD2 residual activity", "result": 91.3, "unit": "%"}, {"measurement": "remaining activity at 0.2 µM", "setting": "340 wild-type kinases [1]; PRKD2, 0.2 µM, read-out: residual activity", "result": 66.4, "unit": "%"}, {"measurement": "remaining activity at 1 µM", "setting": "340 wild-type kinases [1]; PRKD2, 1 µM, read-out: residual activity", "result": 91.3, "unit": "%"}, {"measurement": "remaining activity at 0.2 µM", "setting": "340 wild-type kinases [2]; 0.2 µM 2015, read-out: CDC7/DBF4 residual activity", "result": 108, "unit": "%"}, {"measurement": "remaining activity at 1 µM", "setting": "340 wild-type kinases [2]; 1 µM 2015, read-out: CDC7/DBF4 residual activity", "result": 95.1, "unit": "%"}, {"measurement": "remaining activity at 0.2 µM", "setting": "340 wild-type kinases [2]; CDC7/DBF4, 0.2 µM, read-out: residual activity", "result": 108, "unit": "%"}, {"measurement": "remaining activity at 1 µM", "setting": "340 wild-type kinases [2]; CDC7/DBF4, 1 µM, read-out: residual activity", "result": 95.1, "unit": "%"}, {"measurement": "remaining activity at 0.2 µM", "setting": "340 wild-type kinases [3]; 0.2 µM 2015, read-out: TAOK3 residual activity", "result": 101, "unit": "%"}, {"measurement": "remaining activity at 1 µM", "setting": "340 wild-type kinases [3]; 1 µM 2015, read-out: TAOK3 residual activity", "result": 98.6, "unit": "%"}, {"measurement": "remaining activity at 0.2 µM", "setting": "340 wild-type kinases [3]; TAOK3, 0.2 µM, read-out: residual activity", "result": 101, "unit": "%"}, {"measurement": "remaining activity at 1 µM", "setting": "340 wild-type kinases [3]; TAOK3, 1 µM, read-out: residual activity", "result": 98.6, "unit": "%"}, {"measurement": "remaining activity at 0.2 µM", "setting": "340 wild-type kinases [4]; 0.2 µM 2015, read-out: CDK4/CycD1 residual activity", "result": 117, "unit": "%"}, {"measurement": "remaining activity at 0.2 µM", "setting": "340 wild-type kinases [4]; 0.2 µM 2015, read-out: CDK4/CycD2 residual activity", "result": 109, "unit": "%"}, {"measurement": "remaining activity at 0.2 µM", "setting": "340 wild-type kinases [4]; 0.2 µM 2015, read-out: CDK4/CycD3 residual activity", "result": 70.3, "unit": "%"}, {"measurement": "remaining activity at 1 µM", "setting": "340 wild-type kinases [4]; 1 µM 2015, read-out: CDK4/CycD1 residual activity", "result": 98.4, "unit": "%"}, {"measurement": "remaining activity at 1 µM", "setting": "340 wild-type kinases [4]; 1 µM 2015, read-out: CDK4/CycD2 residual activity", "result": 103, "unit": "%"}, {"measurement": "remaining activity at 1 µM", "setting": "340 wild-type kinases [4]; 1 µM 2015, read-out: CDK4/CycD3 residual activity", "result": 81.7, "unit": "%"}, {"measurement": "remaining activity at 0.2 µM", "setting": "340 wild-type kinases [4]; CDK4/CycD1, 0.2 µM, read-out: residual activity", "result": 117, "unit": "%"}, {"measurement": "remaining activity at 0.2 µM", "setting": "340 wild-type kinases [4]; CDK4/CycD2, 0.2 µM, read-out: residual activity", "result": 109, "unit": "%"}, {"measurement": "remaining activity at 1 µM", "setting": "340 wild-type kinases [4]; CDK4/CycD2, 1 µM, read-out: residual activity", "result": 103, "unit": "%"}, {"measurement": "remaining activity at 0.2 µM", "setting": "340 wild-type kinases [4]; CDK4/CycD3, 0.2 µM, read-out: residual activity", "result": 70.3, "unit": "%"}, {"measurement": "remaining activity at 1 µM", "setting": "340 wild-type kinases [4]; CDK4/CycD3, 1 µM, read-out: residual activity", "result": 81.7, "unit": "%"}, {"measurement": "remaining activity at 0.2 µM", "setting": "340 wild-type kinases [5]; 0.2 µM 2015, read-out: TXK residual activity", "result": 94.2, "unit": "%"}, {"measurement": "remaining activity at 1 µM", "setting": "340 wild-type kinases [5]; 1 µM 2015, read-out: TXK residual activity", "result": 90, "unit": "%"}, {"measurement": "remaining activity at 0.2 µM", "setting": "340 wild-type kinases [5]; TXK, 0.2 µM, read-out: residual activity", "result": 94.2, "unit": "%"}, {"measurement": "remaining activity at 1 µM", "setting": "340 wild-type kinases [5]; TXK, 1 µM, read-out: residual activity", "result": 90, "unit": "%"}]}
